We go through 13 compounds from US6072051A, “Nucleoside derivatives and process for preparing the same” (priority 1995, dated 2000).

Read-outs that look alike come from different tables or passages of the source.

Data set [1] has as its system HBV. Briefly: Test of Anti-HBV Activity in Hep G2 2.2.15 cell lines. The settings on record: for EC50 / EC90: Hepatitis B virus, HepG2 2.2.15. It counts as cell-based. As to the method: (§1) The anti-HBV activity of the compounds according to the present invention, was tested in Hep G2 2.2.15 cell lines, as using 2',3'-dideoxycytidine as a control compound.
Data set [2] is described as follows: Toxicity (CC50) in Hep G2 2.2.15 cell lines, anti-HBV test. As to conditions: human, hep g2 2.2.15 cells. It counts as cell-based. As to the method:
as §1

Data set [3] has as its system HBV. As to conditions: Proc. Natl. Acad. Sci. USA, 88, 8495 (1991); Biochem. Pharm., 47, 171 (1994); cited from earlier work.
Where [4] appears, read: Hep G2 2.2.15 cell lines, anti-HBV activity, read-out: EC50.
Setting [5] is: Hep G2 2.2.15 cell lines, anti-HBV activity, read-out: EC90.

In general, EC50 refers to the concentration that produces a half-maximal response. The EC90 is the concentration needed for an effect of 90%. The CC50 is the concentration that lowers cell viability or growth by half. A lower CC50 goes with harm at low concentration. As to `Nc1nc(=O)n([C@@H]2C[C@](F)(CO)CO2)cc1F` (relative stereo) [Compound 9, cis-2-(5-Fluorocytosin-1-yl)-4-fluoro-4-hydroxymethyltetrahydrofuran], in the data set on HBV [1] (setting [4]), the EC50 amounted to 0.8 µM. The 90% effect concentration (EC90) with HBV [1] (setting [5]) was 0.7 µM. Besides, the “Sl (CC50 /EC90)” value in the data set on HBV [1] (human, hep g2 2.2.15 cells) was 319. It took 2230 µM to reach half-maximal cytotoxicity in data set [2] (CC50).
The corresponding values for `O=c1[nH]c(=O)n([C@H]2C[C@](F)(CO)CO2)cc1I` (relative stereo) [Compound 16, trans-2-(5-iodouracil-1-yl)-4-fluoro-4-hydroxymethyltetrahydrofuran] are 0.8 µM, 5.3 µM, 85 and 451 µM.
With `Nc1ccn([C@H]2CS[C@@H](CO)O2)c(=O)n1` [2',3'-dideoxy-3'-thiacytidine], in the data set on HBV [3], the “anti-HBV activity (reported)” value was “have anti-HBV activity”.
`O=c1[nH]c(=O)n([C@@H]2C[C@](F)(CO)CO2)cc1I` (relative stereo) [Compound 15, cis-2-(5-Iodouracil-1-yl)-4-fluoro-4-hydroxymethyltetrahydrofuran]: in the data set with HBV [1] (setting [4]), the EC50 was determined as 0.6 µM. In addition, the 90% effect concentration (EC90) with HBV [1] (setting [5]) came to 4.4 µM. Further, the “Sl (CC50 /EC90)” value in the data set with HBV [1] (human, hep g2 2.2.15 cells) is recorded as 501. In data set [2], the CC50 was 2200 µM.
On the same counts, the results for `Nc1ccn([C@@H]2C[C@](F)(CO)CO2)c(=O)n1` (relative stereo) [Compound 7, cis-2-(Cytosin-1-yl)-4-fluoro-4-hydroxymethyltetrahydrofuran] are 0.011 µM, 0.143 µM, 10,811 and 1550 µM.
Regarding `Nc1ccn([C@@H]2CC[C@H](CO)O2)c(=O)n1` [2', 3'-dideoxy-β-L-cytidine], in the data set with HBV [3], the “anti-HBV activity (reported)” value is “have anti-HBV activity”.
Turning to `Nc1nc(=O)n([C@H]2C[C@](F)(CO)CO2)cc1F` (relative stereo) [Compound 10, trans-2-(5-Fluorocytosin-1-yl)-4-fluoro-4-hydroxymethyltetrahydrofuran], the half-maximal effective concentration (EC50) with HBV [1] (setting [4]) was 0.061 µM. Besides, the concentration for an effect of 90% (EC90) with HBV [1] (setting [5]) was 0.835 µM. In addition, the “Sl (CC50 /EC90)” value in the data set with HBV [1] (human, hep g2 2.2.15 cells) is given as 1,444. Moreover, in data set [2], the half-maximal cytotoxic concentration (CC50) came to 955 µM.
With `Nc1ccn([C@H]2CC[C@@H](CO)O2)c(=O)n1` [Control compound, 2',3'-dideoxycytidine, reference compound], in the data set on HBV [1], the EC50 worked out at 7.57 µM and the EC90 was 35 µM. Besides, the “Sl (CC50 /EC90)” value with HBV [1] (ratio CC50 /EC90, Hep G2 2.2.15 cell lines) is on record as 30.811. For the same compound, in data set [2], the midpoint of cytotoxicity, the CC50, lay at 1080 µM.
For the compound `Cc1cn([C@@H]2C[C@](F)(CO)CO2)c(=O)[nH]c1=O` (relative stereo) [Compound 5, cis-2-(Thymin-1-yl)-4-fluoro-4-hydroxymethyltetrahydrofuran], in the data set with HBV [1] (setting [4]), the 50% effective concentration (EC50) was 0.1 µM. In the data set with HBV [1] (setting [5]), the EC90 was 0.8 µM. In the data set with HBV [1] (human, hep g2 2.2.15 cells), the “Sl (CC50 /EC90)” value is listed as 590. Moreover, in data set [2], the cytotoxic concentration (CC50) is 472 µM.
The corresponding values for `Cc1cn([C@H]2C[C@](F)(CO)CO2)c(=O)[nH]c1=O` (relative stereo) [Compound 6, trans-2-(Thymin-1-yl)-4-fluoro-4-hydroxymethyltetrahydrofuran] are 0.2 µM, 1 µM, 2,321 and 2320 µM.
On to `Nc1nc(=O)n([C@H]2CS[C@@H](CO)O2)cc1F` [5-fluoro-2', 3'-dideoxy-3'-thiacytidine], for which the “anti-HBV activity (reported)” value in the data set with HBV [3] is on record as “have anti-HBV activity”.
Consider `Nc1ccn([C@H]2C[C@](F)(CO)CO2)c(=O)n1` (relative stereo) [Compound 8, trans-2-(Cytosin-1-yl)-4-fluoro-4-hydroxymethyltetrahydrofuran], for which the EC50 in the data set on HBV [1] (setting [4]) was found to be 0.08 µM. Besides, in the data set on HBV [1] (setting [5]), the EC90 worked out at 0.522 µM. Further, in the data set on HBV [1] (human, hep g2 2.2.15 cells), the “Sl (CC50 /EC90)” value is reported as 2,874. The half-maximal cytotoxic concentration (CC50) in data set [2] was found to be 1500 µM.
As for `Nc1nc(=O)n([C@@H]2CC[C@H](CO)O2)cc1F` [2', 3'-dideoxy-β-L-5-fluorocytidine], in the data set on HBV [3], the “anti-HBV activity (reported)” value was “have anti-HBV activity”.
